Values joined by “and” are separate entries in the source; they are usually repeats but may differ in a detail not shown here. Equal values may be shown once.
Legend:
[1] = target: T1, HEK-mAC1 (Homo sapiens, UniProt Q08828); test: cAMP accumulation assay, isoproterenol-stimulated HEK-mAC1 cells; format: cell-based; conditions: for cAMP level (%); 100%= 10µM Isoproterenol stimulation: single experiments
T1 construct: Human mAC genes were from GenScript and fitted with a C-terminal FLAG-tag; FLAG (C); expressed in transfected cells; host or cells: HEK293, permanently transfected
T1 sequence (Q08828 whole entry): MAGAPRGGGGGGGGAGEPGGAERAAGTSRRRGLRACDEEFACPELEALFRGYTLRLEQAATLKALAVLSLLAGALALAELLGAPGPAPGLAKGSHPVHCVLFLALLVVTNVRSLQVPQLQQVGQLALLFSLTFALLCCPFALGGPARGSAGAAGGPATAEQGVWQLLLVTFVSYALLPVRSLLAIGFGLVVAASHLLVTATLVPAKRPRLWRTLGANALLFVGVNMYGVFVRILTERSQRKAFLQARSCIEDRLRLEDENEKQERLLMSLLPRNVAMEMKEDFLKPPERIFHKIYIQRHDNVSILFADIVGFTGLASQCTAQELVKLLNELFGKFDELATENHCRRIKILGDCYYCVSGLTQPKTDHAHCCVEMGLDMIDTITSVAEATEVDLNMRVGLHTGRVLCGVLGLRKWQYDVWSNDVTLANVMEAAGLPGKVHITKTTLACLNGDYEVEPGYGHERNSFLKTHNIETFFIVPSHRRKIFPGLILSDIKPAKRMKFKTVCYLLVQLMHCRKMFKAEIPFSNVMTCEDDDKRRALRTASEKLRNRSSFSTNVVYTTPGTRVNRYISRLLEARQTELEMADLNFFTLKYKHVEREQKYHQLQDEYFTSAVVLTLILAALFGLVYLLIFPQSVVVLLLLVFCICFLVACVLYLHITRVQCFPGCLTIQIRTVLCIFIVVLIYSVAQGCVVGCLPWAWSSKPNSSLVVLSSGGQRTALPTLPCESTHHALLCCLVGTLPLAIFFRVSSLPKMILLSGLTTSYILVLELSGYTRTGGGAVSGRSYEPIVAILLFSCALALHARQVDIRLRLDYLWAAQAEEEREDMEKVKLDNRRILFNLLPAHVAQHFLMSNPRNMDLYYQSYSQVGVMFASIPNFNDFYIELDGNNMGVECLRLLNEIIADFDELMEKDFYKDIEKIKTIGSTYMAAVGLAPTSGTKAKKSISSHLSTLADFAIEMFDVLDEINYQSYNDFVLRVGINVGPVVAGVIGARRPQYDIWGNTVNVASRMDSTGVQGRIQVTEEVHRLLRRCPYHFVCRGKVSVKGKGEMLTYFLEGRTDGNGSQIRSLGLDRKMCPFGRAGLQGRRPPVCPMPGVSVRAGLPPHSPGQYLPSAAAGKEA

[2] = target: T2, HEK-mAC4 (Homo sapiens, UniProt Q8NFM4); test: cAMP accumulation assay, isoproterenol-stimulated HEK-mAC4 cells; format: cell-based; conditions: for cAMP level (%); 100%= 10µM Isoproterenol stimulation: single experiments
T2 construct: Human mAC genes were from GenScript and fitted with a C-terminal FLAG-tag; FLAG (C); expressed in transfected cells; host or cells: HEK293, permanently transfected
T2 sequence (Q8NFM4 1-1077): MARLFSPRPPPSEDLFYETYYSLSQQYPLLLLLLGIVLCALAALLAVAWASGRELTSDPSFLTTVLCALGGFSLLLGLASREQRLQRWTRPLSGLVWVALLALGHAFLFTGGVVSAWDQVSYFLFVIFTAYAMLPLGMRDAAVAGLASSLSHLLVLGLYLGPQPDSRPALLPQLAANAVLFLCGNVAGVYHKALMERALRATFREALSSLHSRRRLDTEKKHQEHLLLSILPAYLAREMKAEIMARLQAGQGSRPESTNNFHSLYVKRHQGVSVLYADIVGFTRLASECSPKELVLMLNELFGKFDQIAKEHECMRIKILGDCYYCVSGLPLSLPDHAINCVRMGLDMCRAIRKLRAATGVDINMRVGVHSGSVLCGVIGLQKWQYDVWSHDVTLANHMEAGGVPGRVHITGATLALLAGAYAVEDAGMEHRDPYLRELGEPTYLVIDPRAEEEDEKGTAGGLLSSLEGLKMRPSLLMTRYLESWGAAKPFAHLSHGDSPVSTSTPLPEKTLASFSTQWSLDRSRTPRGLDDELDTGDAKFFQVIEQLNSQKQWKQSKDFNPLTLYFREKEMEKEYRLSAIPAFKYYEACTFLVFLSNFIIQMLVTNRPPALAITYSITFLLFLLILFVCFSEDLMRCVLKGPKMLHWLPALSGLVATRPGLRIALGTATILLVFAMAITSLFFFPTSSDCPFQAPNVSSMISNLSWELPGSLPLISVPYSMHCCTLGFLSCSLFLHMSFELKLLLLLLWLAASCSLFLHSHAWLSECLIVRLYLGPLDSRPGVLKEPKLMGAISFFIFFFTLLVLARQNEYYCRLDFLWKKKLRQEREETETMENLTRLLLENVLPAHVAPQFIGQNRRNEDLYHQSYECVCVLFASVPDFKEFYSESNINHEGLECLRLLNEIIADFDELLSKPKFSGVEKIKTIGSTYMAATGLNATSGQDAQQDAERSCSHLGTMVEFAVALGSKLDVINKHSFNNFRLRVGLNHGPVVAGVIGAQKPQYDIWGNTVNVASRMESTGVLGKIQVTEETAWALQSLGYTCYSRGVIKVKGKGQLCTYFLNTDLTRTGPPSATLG

[3] = system: mAC activity in brain cortical membranes; test: AC assay, Gsα-stimulated brain cortical membranes; format: biochemical, mouse
Experimental: hAC sequences were from NCBI were: ADCY1: NM_021116.3; ADCY2: NM_020546.2; ADCY3: NM_004036.4; ADCY4: NM_001198568.2; ADCY5: NM_183357.2; ADCY6: NM_015270.4; ADCY7: NM_001114.4; ADCY8: NM_001115.2; ADCY9: NM_001116.3. Human mAC genes were from GenScript and fitted with a C-terminal FLAG-tag. […] The gene was synthesized by GenScript. HEK293 cells were maintained in Dulbeccos Modified Eagle Medium (DMEM) with 10% fetal bovine serum at 37°C and 5% CO2. Transfection with AC plasmids was with PolyJet (SignaGen, Frederick, MD, USA). Permanent cell lines were generated by selection for 7 days with 600 µg/ml G418 and maintained with 300 µg/ml For membrane preparation, cells were tyrpsinized, collected by centrifugation (3000 × g, 5 min) and lysed and homogenized in 20 mM HEPES, pH 7.5, 1 mM Ethylenediaminetetraacetic acid (EDTA), 2 mM MgCl2, 1 mM Dithiothreitol (DTT), one tablet of cOmplete, EDTA-free (per 50 ml) and 250 mM sucrose by 20 strokes in a potter homogenizer on ice. Debris was removed (5 min at 1000 × g, 0°C), membranes were collected at 100,000 × g, 60 min at 0°C, suspended and stored at −80°C in 20 mM MOPS, pH 7.5, 0.5 mM EDTA, 2 mM MgCl2. […] Three cerebral cortices were dissected and homogenized in 4.5 ml cold 48 mM Tris–HCl, pH 7.4, 12 mM MgC1_2, and 0.1 mM Ethylene glycol-bis(β-aminoethyl ether)-N,N,N′,N′-tetraacetic acid (EGTA) with a Polytron hand disperser (Kinematica AG, Switzerland). […] The pellet was washed once with 5 ml 1 mM KHCO3. The final suspension in 2 ml 1 mM KHCO3 was stored in aliquots at −80°C.
(§1) In a volume of 10 μl, AC activities were measured using 1 mM ATP, 2 mM MgCl2, 3 mM creatine phosphate, 60 μg/ml creatine kinase, and 50 mM MOPS pH 7.5. The cAMP assay kit from Cisbio (Codolet, France) was used for detection according to the supplier’s instructions. For each assay, a cAMP standard curve was established. EC50 and IC50 values were calculated by GraphPad Prism version 8.4.3 for Windows, GraphPad Software, San Diego, CA, USA, https://www.graphpad.com .

[4] = system: mAC1-C1/mAC2-C2; test: AC assay, Gsα-stimulated soluble catalytic dimer; format: biochemical
Experimental: as §1

`CCCCC/C=C\C/C=C\C/C=C\C/C=C\CCCC(=O)O` [Arachidonic acid, Arachidonic ((5Z,8Z,11Z,14Z)-eicosatetraenoic) acid] was tested, and the IC50 ([1]; 10 µM isoproterenol, 0.5 mM IBMX) was 0.25 nM, the “cAMP level (%); 100%= 10µM Isoproterenol stimulation” value (from here on “cAMP level (%)”) ([1]; HEK-mAC1, 1e-5 µM) was 113% and 69% and the “cAMP level (%)” value ([1]; HEK-mAC1, 0.0001 µM) was 98% and 73%. The “cAMP level (%)” value ([1]; HEK-mAC1, 0.001 µM) was 93% and 69%, the “cAMP level (%)” value ([1]; HEK-mAC1, 0.003 µM) was 61% and the “cAMP level (%)” value ([1]; HEK-mAC1, 0.006 µM) was 59%. The “cAMP level (%)” value ([1]; HEK-mAC1, 0.01 µM) was 62% and 55% and 52% and 91% and 64%, the “cAMP level (%)” value ([1]; HEK-mAC1, 0.1 µM) was 77% and 55% and 49% and 97% and 63% and the “cAMP level (%)” value ([1]; HEK-mAC1, 0.6 µM) was 47%. The “cAMP level (%)” value ([1]; HEK-mAC1, 60 µM) was 72% and 67% and 51% and 53% and 65%, the “cAMP level (%)” value ([1]; HEK-mAC1, 100 µM) was 76% and 47% and 57% and 42% and 44% and 60% and 81% and the “Effect on isoproterenol-stimulated cAMP formation in HEK-mAC4” value ([2]; 10 µM isoproterenol, in words) was “not attenuated”. The “cAMP level (%)” value ([2]; HEK-mAC4, 1e-5 µM) was 136%, the “cAMP level (%)” value ([2]; HEK-mAC4, 0.0001 µM) was 111% and the “cAMP level (%)” value ([2]; HEK-mAC4, 0.001 µM) was 114%. The “cAMP level (%)” value ([2]; HEK-mAC4, 0.01 µM) was 81% and 101% and 120% and 122%, the “cAMP level (%)” value ([2]; HEK-mAC4, 0.03 µM) was 124% and the “cAMP level (%)” value ([2]; HEK-mAC4, 0.06 µM) was 102%. For the same compound, the “cAMP level (%)” value ([2]; HEK-mAC4, 0.1 µM) was 84% and 94% and 116% and 103%, the “cAMP level (%)” value ([2]; HEK-mAC4, 0.6 µM) was 108% and the “cAMP level (%)” value ([2]; HEK-mAC4, 1 µM) was 106% and 107% and 121% and 127% and 99% and 109% and 161% and 110%. The “cAMP level (%)” value ([2]; HEK-mAC4, 3 µM) was 93% and 101% and 129% and 97% and 124% and 139%, the “cAMP level (%)” value ([2]; HEK-mAC4, 10 µM) was 112% and 82% and 111% and 109% and 125% and 147% and the “cAMP level (%)” value ([2]; HEK-mAC4, 30 µM) was 103% and 112% and 97% and 105% and 131%. For the same compound, the “cAMP level (%)” value ([2]; HEK-mAC4, 60 µM) was 95% and 112% and 121% and 114% and 128% and the “cAMP level (%)” value ([2]; HEK-mAC4, 100 µM) was 99% and 78% and 112% and 85% and 100% and 146% and 145%.
For `CCCCCCCC/C=C\CCCCCCCC(=O)O` [Oleic acid, Oleic ((9Z)-octadecenoic) acid], the “enhancement of Gsα-stimulated cAMP formation in cortical membranes” value ([3]; 20 µM oleic acid) was 1.5 fold, the “mAC activity [%] (100% = 300nM Gsα stimulation), mouse brain cortex” value (“mAC activity [%]” below) ([3]; Oleic acid 1 µM) was 78% and 93% and 114% and the “mAC activity [%]” value ([3]; Oleic acid 3 µM) was 154%. For the same compound, the “mAC activity [%]” value ([3]; Oleic acid 6 µM) was 153% and 144%, the “mAC activity [%]” value ([3]; Oleic acid 8 µM) was 173% and 146% and 174% and the “mAC activity [%]” value ([3]; Oleic acid 10 µM) was 142% and 181%. The “mAC activity [%]” value ([3]; Oleic acid 20 µM) was 187% and 161% and 140%, the EC50 ([3]; enhancement of 300 nM Gsα-stimulated cAMP formation) was 5000 nM and the “AC activity (%); stimulated by 300nM Gsα, mAC1-C1/mAC2-C2” value (from here on “AC activity (%); stimulated”) ([4]; Oleic acid 0.3 µM) was 100%. For the same compound, the “AC activity (%); stimulated” value ([4]; Oleic acid 1 µM) was 93% and 84% and 72%, the “AC activity (%); stimulated” value ([4]; Oleic acid 3 µM) was 77% and 90% and 82% and the “AC activity (%); stimulated” value ([4]; Oleic acid 6 µM) was 78% and 77% and 84%. For the same compound, the “AC activity (%); stimulated” value ([4]; Oleic acid 10 µM) was 68% and 70% and 67% and the “AC activity (%); stimulated” value ([4]; Oleic acid 20 µM) was 74% and 77% and 65%.

From publication PMC11606603, “The membrane domains of mammalian adenylyl cyclases are lipid receptors” (eLife, 2024)
